As a reminder, the inhibition is the drop in the measured response relative to a control, in per cent. The term IC50 denotes the concentration at which inhibition is half-maximal.

What all share (test): kinase selectivity panel
Format in all cases: biochemical

The target in one experiment is T1, ALK (Homo sapiens, UniProt Q9UM73).
T1 construct: purchased Eurofins Pharma Discovery Services (KinaseProfiler; Cerep BioPrint panel)
The note with it: read-out: percentage of control activity (POC), ALK. As for the experimental part: (§1) Kinase selectivity was evaluated at Eurofins Pharma Discovery Services using a selection of 125 representative kinases tested at a concentration of 10 μM in duplicate (S3 Table). IC50 values for selected activities were further characterized at 9 duplicate concentrations. DNA-PK activity was determined at the SelectScreen® Biochemical kinase Profiling Service of Thermo Fisher Scientific.

Another experiment deals with T2, AMPKα1 (Homo sapiens, UniProt Q13131).
T2 construct: purchased Eurofins Pharma Discovery Services (KinaseProfiler; Cerep BioPrint panel)
The note with it: read-out: percentage of control activity (POC), AMPKα1. The procedure:
as §1

A further experiment has as its target T3, BRK (Homo sapiens, UniProt Q13882).
T3 construct: purchased Eurofins Pharma Discovery Services (KinaseProfiler; Cerep BioPrint panel)
The note with it: read-out: percentage of control activity (POC), BRK. The procedure:
as §1

The next experiment has as its target T4, DRAK1 (Homo sapiens, UniProt Q9UEE5).
T4 construct: purchased Eurofins Pharma Discovery Services (KinaseProfiler; Cerep BioPrint panel)
T4 sequence (Q9UEE5 1-414): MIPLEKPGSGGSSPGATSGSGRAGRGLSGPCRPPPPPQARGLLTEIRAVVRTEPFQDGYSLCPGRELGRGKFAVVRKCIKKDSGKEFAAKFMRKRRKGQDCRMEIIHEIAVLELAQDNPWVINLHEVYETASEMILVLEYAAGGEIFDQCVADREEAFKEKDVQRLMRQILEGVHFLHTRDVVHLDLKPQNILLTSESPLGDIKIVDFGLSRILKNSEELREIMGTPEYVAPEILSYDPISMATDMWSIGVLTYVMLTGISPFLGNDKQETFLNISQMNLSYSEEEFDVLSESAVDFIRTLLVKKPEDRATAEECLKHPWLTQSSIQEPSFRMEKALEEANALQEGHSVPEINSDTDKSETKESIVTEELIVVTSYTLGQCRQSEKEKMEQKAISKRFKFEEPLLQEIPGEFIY
The note with it: read-out: percentage of control activity (POC), DRAK1. As for the experimental part:
as §1

For the next experiment, the target named is T5, Flt4 (Homo sapiens, UniProt P35916).
T5 construct: Eurofins Pharma Discovery Services (contract assay service)
The note with it: for remaining activity at 10 µM: read-out: percentage of control activity (POC), Flt4. The procedure: as §1

A further experiment has as its target T6, IKKβ (Homo sapiens, UniProt O14920).
T6 construct: purchased Eurofins Pharma Discovery Services (KinaseProfiler; Cerep BioPrint panel)
T6 sequence (O14920 1-756): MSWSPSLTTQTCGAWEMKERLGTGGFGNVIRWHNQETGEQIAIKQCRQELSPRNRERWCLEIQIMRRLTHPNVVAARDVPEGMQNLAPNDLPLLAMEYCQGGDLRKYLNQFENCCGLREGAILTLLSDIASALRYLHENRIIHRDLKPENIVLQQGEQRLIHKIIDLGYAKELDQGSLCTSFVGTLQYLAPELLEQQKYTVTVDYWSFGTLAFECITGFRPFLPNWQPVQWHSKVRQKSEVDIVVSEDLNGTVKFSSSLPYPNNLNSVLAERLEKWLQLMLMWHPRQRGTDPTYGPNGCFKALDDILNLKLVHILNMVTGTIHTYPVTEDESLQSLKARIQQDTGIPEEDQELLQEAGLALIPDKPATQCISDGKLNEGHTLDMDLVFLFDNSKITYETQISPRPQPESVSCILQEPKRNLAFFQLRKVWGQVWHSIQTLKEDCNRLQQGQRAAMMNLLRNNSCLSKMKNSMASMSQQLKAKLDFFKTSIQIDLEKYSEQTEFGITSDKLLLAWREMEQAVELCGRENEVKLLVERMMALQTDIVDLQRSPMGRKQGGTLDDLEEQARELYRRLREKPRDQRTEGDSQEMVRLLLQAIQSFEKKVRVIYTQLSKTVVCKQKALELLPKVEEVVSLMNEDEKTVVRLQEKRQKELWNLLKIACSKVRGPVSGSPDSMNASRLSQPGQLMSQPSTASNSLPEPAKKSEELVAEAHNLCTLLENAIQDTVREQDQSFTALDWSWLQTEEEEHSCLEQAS
The note with it: read-out: percentage of control activity (POC), IKKβ. The procedure: as §1

The next experiment deals with T7, MAPKAP-K2 (Homo sapiens, UniProt P49137).
T7 construct: purchased Eurofins Pharma Discovery Services (KinaseProfiler; Cerep BioPrint panel)
The note with it: read-out: percentage of control activity (POC), MAPKAP-K2. The procedure:
as §1

Another experiment concerns the target T8, Mnk2 (Homo sapiens, UniProt Q9HBH9).
T8 construct: purchased Eurofins Pharma Discovery Services (KinaseProfiler; Cerep BioPrint panel)
The note with it: read-out: percentage of control activity (POC), Mnk2. The procedure:
as §1

A further experiment deals with T9, MuSK (Homo sapiens, UniProt O15146).
T9 construct: purchased Eurofins Pharma Discovery Services (KinaseProfiler; Cerep BioPrint panel)
T9 sequence (O15146 24-869): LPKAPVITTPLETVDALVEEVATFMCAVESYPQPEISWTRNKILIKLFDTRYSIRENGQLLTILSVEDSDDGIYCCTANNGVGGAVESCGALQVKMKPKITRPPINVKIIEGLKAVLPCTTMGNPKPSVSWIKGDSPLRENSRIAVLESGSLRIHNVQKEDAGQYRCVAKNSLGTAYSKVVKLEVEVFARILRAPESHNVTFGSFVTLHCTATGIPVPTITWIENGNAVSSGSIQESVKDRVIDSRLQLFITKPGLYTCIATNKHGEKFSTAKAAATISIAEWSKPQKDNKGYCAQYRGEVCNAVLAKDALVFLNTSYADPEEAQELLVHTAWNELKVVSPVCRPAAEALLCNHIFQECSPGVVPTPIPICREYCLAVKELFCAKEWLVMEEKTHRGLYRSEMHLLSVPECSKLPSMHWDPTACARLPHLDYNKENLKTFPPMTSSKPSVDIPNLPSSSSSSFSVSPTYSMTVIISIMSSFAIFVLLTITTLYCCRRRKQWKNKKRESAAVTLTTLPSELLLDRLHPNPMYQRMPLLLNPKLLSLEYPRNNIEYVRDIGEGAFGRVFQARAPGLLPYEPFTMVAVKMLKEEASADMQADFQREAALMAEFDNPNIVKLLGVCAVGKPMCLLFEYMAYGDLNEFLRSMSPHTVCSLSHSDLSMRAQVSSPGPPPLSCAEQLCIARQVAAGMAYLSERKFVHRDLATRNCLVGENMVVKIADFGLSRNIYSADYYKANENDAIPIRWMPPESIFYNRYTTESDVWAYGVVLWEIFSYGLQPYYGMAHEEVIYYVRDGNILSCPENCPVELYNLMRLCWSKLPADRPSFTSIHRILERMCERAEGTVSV
The note with it: read-out: percentage of control activity (POC), MuSK. As for the experimental part:
as §1

A further experiment has as its target T10, PKCδ (Homo sapiens, UniProt Q05655).
T10 construct: purchased Eurofins Pharma Discovery Services (KinaseProfiler; Cerep BioPrint panel)
The note with it: read-out: percentage of control activity (POC), PKCδ. The procedure:
as §1

For a further experiment, the target named is T11, Tie2 (Homo sapiens, UniProt Q02763).
T11 construct: purchased Eurofins Pharma Discovery Services (KinaseProfiler; Cerep BioPrint panel)
The note with it: for remaining activity at 10 µM: read-out: percentage of control activity (POC), Tie2. As for the experimental part:
as §1

T8 sequence (Q9HBH9 whole entry): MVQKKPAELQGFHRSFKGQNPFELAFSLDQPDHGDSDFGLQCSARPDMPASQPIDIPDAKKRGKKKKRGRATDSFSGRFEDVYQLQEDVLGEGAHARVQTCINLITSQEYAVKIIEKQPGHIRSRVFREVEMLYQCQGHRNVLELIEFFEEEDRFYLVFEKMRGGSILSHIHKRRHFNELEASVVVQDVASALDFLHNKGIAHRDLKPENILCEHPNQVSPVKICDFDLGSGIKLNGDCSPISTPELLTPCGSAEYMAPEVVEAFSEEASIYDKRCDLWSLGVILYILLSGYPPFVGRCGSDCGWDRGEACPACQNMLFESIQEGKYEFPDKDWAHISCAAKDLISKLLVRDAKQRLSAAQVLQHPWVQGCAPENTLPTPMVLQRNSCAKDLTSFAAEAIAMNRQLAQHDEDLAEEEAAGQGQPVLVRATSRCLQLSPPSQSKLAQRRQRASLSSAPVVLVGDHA
T1 sequence (Q9UM73 19-1620): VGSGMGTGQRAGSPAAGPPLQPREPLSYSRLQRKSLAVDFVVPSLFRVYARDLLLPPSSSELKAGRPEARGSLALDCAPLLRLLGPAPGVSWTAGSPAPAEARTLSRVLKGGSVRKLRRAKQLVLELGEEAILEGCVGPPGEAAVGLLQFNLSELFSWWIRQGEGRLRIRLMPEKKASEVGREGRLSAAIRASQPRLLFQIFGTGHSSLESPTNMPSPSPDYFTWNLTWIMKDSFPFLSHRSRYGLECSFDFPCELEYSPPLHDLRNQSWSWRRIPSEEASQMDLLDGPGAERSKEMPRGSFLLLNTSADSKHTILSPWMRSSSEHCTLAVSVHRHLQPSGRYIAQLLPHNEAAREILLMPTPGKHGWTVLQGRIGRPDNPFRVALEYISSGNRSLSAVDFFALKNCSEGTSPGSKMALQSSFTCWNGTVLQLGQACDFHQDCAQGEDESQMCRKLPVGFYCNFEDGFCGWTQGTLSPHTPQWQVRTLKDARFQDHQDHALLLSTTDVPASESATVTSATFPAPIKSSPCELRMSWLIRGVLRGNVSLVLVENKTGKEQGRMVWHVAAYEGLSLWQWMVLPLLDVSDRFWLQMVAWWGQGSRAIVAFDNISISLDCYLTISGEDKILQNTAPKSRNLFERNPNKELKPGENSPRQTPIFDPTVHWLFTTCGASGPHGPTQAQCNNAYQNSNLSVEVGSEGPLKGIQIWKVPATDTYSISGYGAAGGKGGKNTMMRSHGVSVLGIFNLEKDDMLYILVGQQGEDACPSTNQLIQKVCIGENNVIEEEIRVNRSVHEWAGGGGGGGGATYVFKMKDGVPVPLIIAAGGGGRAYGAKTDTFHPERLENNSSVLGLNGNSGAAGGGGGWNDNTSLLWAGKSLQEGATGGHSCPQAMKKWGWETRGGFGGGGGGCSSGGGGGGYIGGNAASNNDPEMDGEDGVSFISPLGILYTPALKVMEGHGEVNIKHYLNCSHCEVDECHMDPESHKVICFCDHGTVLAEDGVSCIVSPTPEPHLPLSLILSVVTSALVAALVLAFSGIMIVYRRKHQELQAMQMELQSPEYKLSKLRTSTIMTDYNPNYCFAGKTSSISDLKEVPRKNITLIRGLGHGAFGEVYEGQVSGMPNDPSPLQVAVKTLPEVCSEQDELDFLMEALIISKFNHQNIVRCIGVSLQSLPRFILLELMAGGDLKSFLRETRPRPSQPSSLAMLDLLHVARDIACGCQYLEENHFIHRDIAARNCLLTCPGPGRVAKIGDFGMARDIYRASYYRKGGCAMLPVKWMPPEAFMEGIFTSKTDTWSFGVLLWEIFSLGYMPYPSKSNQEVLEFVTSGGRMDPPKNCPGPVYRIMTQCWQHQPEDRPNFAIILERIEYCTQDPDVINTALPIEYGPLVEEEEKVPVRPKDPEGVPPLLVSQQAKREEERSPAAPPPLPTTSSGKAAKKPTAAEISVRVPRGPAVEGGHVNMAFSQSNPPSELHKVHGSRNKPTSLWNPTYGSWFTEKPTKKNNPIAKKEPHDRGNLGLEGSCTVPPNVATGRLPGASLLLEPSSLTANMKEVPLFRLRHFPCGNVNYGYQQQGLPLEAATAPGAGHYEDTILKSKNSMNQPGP
T2 sequence (Q13131 whole entry): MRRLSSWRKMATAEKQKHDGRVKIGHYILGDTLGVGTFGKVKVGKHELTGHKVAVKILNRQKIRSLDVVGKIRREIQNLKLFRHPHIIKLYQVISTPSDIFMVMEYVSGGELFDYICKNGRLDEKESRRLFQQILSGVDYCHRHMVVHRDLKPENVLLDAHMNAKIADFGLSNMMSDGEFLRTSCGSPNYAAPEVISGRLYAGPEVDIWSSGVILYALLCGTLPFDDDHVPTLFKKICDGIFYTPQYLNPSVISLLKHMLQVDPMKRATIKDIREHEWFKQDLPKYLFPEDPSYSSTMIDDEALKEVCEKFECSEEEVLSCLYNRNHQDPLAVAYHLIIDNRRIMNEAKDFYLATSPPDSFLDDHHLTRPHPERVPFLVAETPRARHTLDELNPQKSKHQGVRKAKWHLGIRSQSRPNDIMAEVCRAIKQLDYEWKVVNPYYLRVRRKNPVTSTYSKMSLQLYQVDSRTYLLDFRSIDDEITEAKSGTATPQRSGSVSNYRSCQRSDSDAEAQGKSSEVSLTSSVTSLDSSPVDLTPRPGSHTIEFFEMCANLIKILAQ
T2 sequence (Q9Y478 whole entry partner): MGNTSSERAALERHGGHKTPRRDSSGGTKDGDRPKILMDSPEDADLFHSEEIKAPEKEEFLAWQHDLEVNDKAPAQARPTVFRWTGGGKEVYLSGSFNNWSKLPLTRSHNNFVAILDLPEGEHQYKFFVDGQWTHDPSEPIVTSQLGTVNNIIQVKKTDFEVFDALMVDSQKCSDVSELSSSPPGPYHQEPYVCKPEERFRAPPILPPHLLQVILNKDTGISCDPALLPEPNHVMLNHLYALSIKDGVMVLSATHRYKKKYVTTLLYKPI
T2 sequence (P54619 whole entry partner): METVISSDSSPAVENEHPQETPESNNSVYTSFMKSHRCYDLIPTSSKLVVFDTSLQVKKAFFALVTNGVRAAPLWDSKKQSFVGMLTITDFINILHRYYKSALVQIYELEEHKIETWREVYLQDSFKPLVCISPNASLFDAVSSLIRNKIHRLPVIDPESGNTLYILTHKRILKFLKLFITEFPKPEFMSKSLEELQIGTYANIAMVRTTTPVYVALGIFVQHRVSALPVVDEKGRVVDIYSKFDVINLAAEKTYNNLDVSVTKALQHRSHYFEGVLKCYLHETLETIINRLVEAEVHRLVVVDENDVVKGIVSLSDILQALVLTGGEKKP
T3 sequence (Q13882 whole entry): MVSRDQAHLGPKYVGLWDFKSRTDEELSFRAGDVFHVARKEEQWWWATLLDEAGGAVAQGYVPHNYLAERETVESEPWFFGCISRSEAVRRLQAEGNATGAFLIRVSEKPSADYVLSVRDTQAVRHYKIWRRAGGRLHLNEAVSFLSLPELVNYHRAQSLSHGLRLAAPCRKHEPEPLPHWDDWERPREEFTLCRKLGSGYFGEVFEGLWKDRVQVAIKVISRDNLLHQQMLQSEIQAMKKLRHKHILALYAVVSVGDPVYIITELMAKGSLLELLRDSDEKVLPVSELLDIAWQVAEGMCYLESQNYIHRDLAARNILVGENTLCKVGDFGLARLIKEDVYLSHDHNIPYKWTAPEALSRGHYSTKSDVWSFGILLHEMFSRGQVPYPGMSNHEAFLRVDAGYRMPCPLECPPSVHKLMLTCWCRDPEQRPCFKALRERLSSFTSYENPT
T5 sequence (P35916 25-1363, species assumed): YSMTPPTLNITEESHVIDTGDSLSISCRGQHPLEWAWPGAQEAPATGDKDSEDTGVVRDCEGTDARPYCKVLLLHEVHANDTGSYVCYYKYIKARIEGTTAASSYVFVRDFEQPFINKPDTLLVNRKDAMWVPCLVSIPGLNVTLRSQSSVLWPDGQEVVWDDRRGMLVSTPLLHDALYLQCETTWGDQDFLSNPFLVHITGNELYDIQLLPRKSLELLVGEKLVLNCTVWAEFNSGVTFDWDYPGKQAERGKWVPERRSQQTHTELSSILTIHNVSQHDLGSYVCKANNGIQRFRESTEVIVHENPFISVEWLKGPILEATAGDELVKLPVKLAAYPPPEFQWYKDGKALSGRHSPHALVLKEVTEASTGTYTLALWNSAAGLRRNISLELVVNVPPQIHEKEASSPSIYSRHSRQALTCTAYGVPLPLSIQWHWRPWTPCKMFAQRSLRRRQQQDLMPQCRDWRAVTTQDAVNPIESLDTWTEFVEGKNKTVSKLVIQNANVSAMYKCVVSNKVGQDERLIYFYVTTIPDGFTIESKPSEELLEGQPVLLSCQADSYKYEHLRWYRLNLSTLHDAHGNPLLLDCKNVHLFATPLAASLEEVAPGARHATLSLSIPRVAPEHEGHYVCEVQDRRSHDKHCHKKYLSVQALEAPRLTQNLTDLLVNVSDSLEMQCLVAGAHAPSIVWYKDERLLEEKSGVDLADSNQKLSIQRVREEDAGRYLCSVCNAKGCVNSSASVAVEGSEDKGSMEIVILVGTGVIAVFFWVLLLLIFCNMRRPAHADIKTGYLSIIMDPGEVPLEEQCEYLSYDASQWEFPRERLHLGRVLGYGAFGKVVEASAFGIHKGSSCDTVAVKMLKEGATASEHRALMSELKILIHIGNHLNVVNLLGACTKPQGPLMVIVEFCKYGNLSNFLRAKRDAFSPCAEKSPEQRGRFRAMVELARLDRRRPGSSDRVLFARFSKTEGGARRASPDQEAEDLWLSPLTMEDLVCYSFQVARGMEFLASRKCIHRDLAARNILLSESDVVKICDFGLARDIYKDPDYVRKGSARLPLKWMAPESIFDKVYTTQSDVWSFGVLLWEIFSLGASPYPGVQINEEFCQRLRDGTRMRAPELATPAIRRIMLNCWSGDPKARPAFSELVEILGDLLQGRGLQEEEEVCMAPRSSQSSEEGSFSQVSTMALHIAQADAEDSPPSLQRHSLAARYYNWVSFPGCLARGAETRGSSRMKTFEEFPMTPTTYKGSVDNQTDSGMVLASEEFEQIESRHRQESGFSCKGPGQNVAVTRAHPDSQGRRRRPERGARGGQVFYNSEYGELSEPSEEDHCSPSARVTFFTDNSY

On to `Cn1cc(-c2cccc(-c3nc(C(=O)NC4C5CC6CC4CC(O)(C6)C5)c(N)nc3N)c2)cn1` (stereo not shown) [compound 4], for which the remaining activity at 10 µM worked out at 64% at ALK; 85% on AMPKα1; 71% on BRK; 89% on DRAK1; 20% at Flt4 (10 μM); 95% at IKKβ. For the same compound, the remaining activity at 10 µM at MAPKAP-K2 was determined as 107%; at Mnk2 it was 86%; on MuSK, 101%; at PKCδ, 97%; at Tie2, 76%. Besides, the inhibition at 10 µM at Flt4 (10 μM, read-out: inhibition of Ftl4) amounted to 80%. The IC50 at Flt4 (biochemical dose response, duplicate, read-out: Inhibition of indicated activity (IC50, μM): Ftl4) amounted to 3.13 µM.

As for `COc1c(NC(=O)c2ccc(C)c(-c3nnc4c(NCC(C)(C)C)nccn34)c2)cc(C(C)(C)C)cc1NS(C)(=O)=O` [compound 7, reference compound], the remaining activity at 10 µM on ALK amounted to 146%; on AMPKα1, 114%; at BRK, 98%; on DRAK1, 144%; at Flt4 (10 μM), 88%; on IKKβ, 127%. For the same compound, the remaining activity at 10 µM at MAPKAP-K2 came out at 110%; on Mnk2, 98%; on MuSK, 104%; on PKCδ, 107%; on Tie2, 27%. This compound had an inhibition at 10 µM against Tie2 of 83%.

For `Cc1ccc(C(=O)NCC2CC2)cc1-c1ccc2c(c1)NC(=O)C21CCCC1` [compound 3], the remaining activity at 10 µM came to 77% at ALK; 98% on AMPKα1; 103% at BRK; 98% on DRAK1; 78% at Flt4 (10 μM); 107% at IKKβ. Further, the remaining activity at 10 µM at MAPKAP-K2 was found to be 106%; on Mnk2, 91%; at MuSK, 106%; on PKCδ it was 104%; at Tie2 it was 96%.

Consider `CC(C)(C)N1CCC(c2cc(-c3ccc(F)cc3Cl)c3cc[n+]([O-])c(-c4c(Cl)cccc4Cl)c3n2)CC1` [compound 2], for which the remaining activity at 10 µM was 89% at ALK; 105% at AMPKα1; 98% on BRK; 99% at DRAK1; 108% at Flt4 (10 μM); 102% on IKKβ. Besides, the remaining activity at 10 µM turned out to be 108% on MAPKAP-K2; 100% on Mnk2; 110% on MuSK; 109% at PKCδ; 79% on Tie2.

Turning to `CS(=O)(=O)N1CCN(c2ccc(Nc3ncc(C(N)=O)c(NC4CC4)n3)cc2)CC1` [compound 5], the remaining activity at 10 µM on ALK was 62%; on AMPKα1 it was -1%; on BRK it was 39%; at DRAK1 it was 1%; on Flt4 (10 μM), 0%; at IKKβ it was 8%. The remaining activity at 10 µM on MAPKAP-K2 was determined as 85%; at Mnk2, 84%; on MuSK, 60%; at PKCδ, 8%; at Tie2 it was 42%.

The values are drawn from publication PMC5761851, “Application of a phenotypic drug discovery strategy to identify biological and chemical starting points for inhibition of TSLP production in lung epithelial cells” (PLoS ONE, 2018).
